Measured values reported in US20060069132A1, “Azolecarboxamide herbicides” (priority 2004, published 2006).

How the values were obtained:
[1] = test system: eastern black nightshade; assay: Test C pre-/postemergence herbicide test; type: in vivo, Solanum ptycanthum; conditions: preemergence
Procedure, shortened: (§1)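 Seeds were planted and sprayed preemergence with test chemicals in a non-phytotoxic solvent mixture containing surfactant; postemergence treatments went onto plants 2 to 18 cm tall (1- to 4-leaf stage). After 12 to 14 days in a greenhouse, injury was rated visually against untreated controls on a 0–100 scale.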

[2] = test system: cocklebur; assay: Test C pre-/postemergence herbicide test; type: in vivo, Xanthium strumarium
Procedure, shortened: as §1

[3] = test system: ducksalad; assay: Test C flooded paddy test; type: in vivo, Heteranthera limosa; conditions: for Plant response rating, Ducksalad: 500 g ai/ha, visual rating after 12 to 14 days
[4] = test system: large crabgrass; assay: Test C pre-/postemergence herbicide test; type: in vivo, Digitaria sanguinalis
Procedure, shortened: as §1

[5] = test system: velvetleaf; assay: Test C pre-/postemergence herbicide test; type: in vivo, Abutilon theophrasti
Procedure, shortened: as §1

[6] = test system: corn; assay: Test C pre-/postemergence herbicide test; type: in vivo, Zea mays
Procedure, shortened: as §1

[7] = test system: rice; assay: Test C flooded paddy test; type: in vivo, Oryza sativa; conditions: for Plant response rating, Rice: 500 g ai/ha, visual rating after 12 to 14 days
Procedure, shortened: (§2)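 Postemergence sprays applied to plants 2 to 18 cm tall (1- to 4-leaf stage); paddy species grown to 2-leaf stage under flooding. After 12 to 14 days in greenhouse, visual rating versus untreated controls on 0–100 scale (0 no effect, 100 complete control).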

[8] = test system: yellow nutsedge; assay: Test C pre-/postemergence herbicide test; type: in vivo, Cyperus esculentus
Procedure, shortened: as §1

[9] = test system: barnyardgrass; assay: Test C flooded paddy test; type: in vivo, Echinochloa crus-galli; conditions: for Plant response rating, Barnyardgrass: 500 g ai/ha, visual rating after 12 to 14 days
Procedure, shortened: as §2

[10] = test system: common ragweed; assay: Test C pre-/postemergence herbicide test; type: in vivo, Ambrosia elatior; set-up: key to Plant response rating, Ragweed: 0 = no effect, 100 = complete control
Procedure, shortened: as §1

[11] = 500 g ai/ha, scale 0 to 100 (0 no effect, 100 complete control), visual, 12 to 14 days
[12] = 62 g ai/ha, preemergence, scale 0 to 100
[13] = 250 g ai/ha, scale 0-100, preemergence
[14] = 500 g ai/ha, scale 0 to 100 (0 no effect, 100 complete control), visual, 12 to 14 days, preemergence
[15] = 125 g ai/ha, scale 0 to 100 (0 no effect, 100 complete control)
[16] = 250 g ai/ha, scale of 0 to 100, 0 is no effect, 100 is complete control
[17] = scale 0 to 100 (0 no effect, 100 complete control)
[18] = 62 g ai/ha, scale 0 to 100 (0 no effect, 100 complete control)
[19] = 125 g ai/ha, scale 0 (no effect) to 100 (complete control), visual, 12 to 14 days, preemergence
[20] = Postemergence, 250 g ai/ha, scale 0 to 100, 0 no effect, 100 complete control
[21] = postemergence, 125 g ai/ha, scale 0 to 100
[22] = postemergence, 62 g ai/ha, scale 0 to 100
[23] = Postemergence, 500 g ai/ha, scale 0 to 100

SMILES: CCNC(=O)c1ccc(F)c(N(C(C)=O)C(=O)c2cc(C(C)(C)C)nn2CC)c1 [Compound 399]
- Plant response rating, Nightshade ([1]; 62 g ai/ha, scale 0 to 100): 95
- Plant response rating (0 = no effect, 100 = complete control), Nightshade ([1]; 125 g ai/ha): 100
- Plant response rating, Nightshade [1, 11]: 100
- Plant response rating, Cocklebur [2, 12]: 15
- Plant response rating (0 = no effect, 100 = complete control), Cocklebur ([2]; 125 g ai/ha, preemergence): 65
- Plant response rating, Cocklebur [2, 13]: 70
- Plant response rating, Cocklebur [2, 14]: 80
- Ducksalad plant response rating ([3]; 62 g ai/ha, scale 0 to 100): 75
- Ducksalad plant response rating [3, 15]: 75
- Ducksalad plant response rating [3, 16]: 85
- Plant response rating, Ducksalad [3, 17]: 85
- Plant response rating, Crabgrass, Large [4, 12]: 100
- Plant response rating (0 = no effect, 100 = complete control), Crabgrass, Large ([4]; 125 g ai/ha, preemergence): 100
- Plant response rating, Crabgrass, Large [4, 13]: 100
- Plant response rating, Crabgrass, Large [4, 14]: 100
- Plant response rating, Velvetleaf [5, 12]: 95
- Plant response rating (0 = no effect, 100 = complete control), Velvetleaf ([5]; 125 g ai/ha, preemergence): 100
- Plant response rating, Velvetleaf [5, 14]: 100
- Plant response rating, Corn [6, 12]: 60
- Plant response rating (0 = no effect, 100 = complete control), Corn ([6]; 125 g ai/ha, preemergence): 70
- Plant response rating, Corn [6, 13]: 80
- Plant response rating, Corn [6, 14]: 95
- Rice plant response rating ([7]; 62 g ai/ha, scale 0 to 100): 65
- Rice plant response rating [7, 15]: 65
- Rice plant response rating [7, 16]: 75
- Plant response rating, Rice [7, 17]: 75
- Plant response rating, Nutsedge, Yellow [8, 12]: 45
- Plant response rating (0 = no effect, 100 = complete control), Nutsedge, Yellow ([8]; 125 g ai/ha, preemergence): 75
- Plant response rating, Nutsedge, Yellow [8, 14]: 95
- Barnyardgrass plant response rating [9, 18]: 50
- Barnyardgrass plant response rating [9, 15]: 65
- Barnyardgrass plant response rating [9, 16]: 85
- Plant response rating, Barnyardgrass [9, 17]: 90
- Plant response rating, Ragweed [10, 12]: 95
- Plant response rating (0 = no effect, 100 = complete control), Ragweed ([10]; 125 g ai/ha, preemergence): 100
- Plant response rating, Ragweed [10, 14]: 100

SMILES: CCn1nc(C(C)(C)C)cc1C(=O)Nc1cccc(OC(F)(F)C(F)F)c1 [Compound 333]
- Plant response rating, Nightshade ([1]; 125 g ai/ha, scale 0 (no effect) to 100 (complete control), visual, 12 to 14 days): 20
- Plant response rating, Nightshade ([1]; 250 g ai/ha, scale 0-100): 98
- Plant response rating, Nightshade [1, 11]: 100
- Plant response rating, Cocklebur [2, 12]: 0
- Plant response rating, Cocklebur [2, 19]: 0
- Plant response rating, Cocklebur [2, 13]: 0
- Plant response rating, Cocklebur [2, 20]: 80
- Cocklebur plant response rating ([2]; Preemergence, 500 g ai/ha, scale 0 to 100, 0 no effect, 100 complete control): 5
- Plant response rating, Cocklebur [2, 21]: 5
- Plant response rating, Cocklebur [2, 22]: 0
- Ducksalad plant response rating ([3]; 62 g ai/ha, scale 0 to 100): 0
- Ducksalad plant response rating [3, 15]: 0
- Ducksalad plant response rating [3, 16]: 0
- Plant response rating, Ducksalad [3, 17]: 25
- Plant response rating, Crabgrass, Large [4, 12]: 20
- Plant response rating, Crabgrass, Large [4, 19]: 70
- Plant response rating, Crabgrass, Large [4, 13]: 100
- Plant response rating, Crabgrass, Large [4, 14]: 100
- Crabgrass, Large plant response rating [4, 23]: 10
- Plant response rating, Crabgrass, Large [4, 20]: 5
- Plant response rating, Crabgrass, Large [4, 21]: 5
- Plant response rating, Crabgrass, Large [4, 22]: 0
- Plant response rating, Velvetleaf [5, 12]: 0
- Plant response rating, Velvetleaf [5, 13]: 50
- Plant response rating, Velvetleaf [5, 14]: 55
- Velvetleaf plant response rating [5, 23]: 80
- Plant response rating, Velvetleaf [5, 20]: 50
- Plant response rating, Velvetleaf [5, 21]: 50
- Plant response rating, Corn [6, 12]: 0
- Plant response rating, Corn [6, 19]: 0
- Plant response rating, Corn [6, 13]: 0
- Plant response rating, Corn [6, 14]: 0
- Corn plant response rating [6, 23]: 5
- Plant response rating, Corn [6, 20]: 5
- Plant response rating, Corn [6, 21]: 5
- Plant response rating, Corn [6, 22]: 5
- Rice plant response rating ([7]; 62 g ai/ha, scale 0 to 100): 0
- Rice plant response rating [7, 15]: 0
- Rice plant response rating [7, 16]: 15
- Plant response rating, Rice [7, 17]: 20
- Plant response rating, Nutsedge, Yellow [8, 12]: 0
- Plant response rating, Nutsedge, Yellow [8, 19]: 0
- Plant response rating, Nutsedge, Yellow [8, 13]: 0
- Plant response rating, Nutsedge, Yellow [8, 14]: 0
- Nutsedge, Yellow plant response rating [8, 23]: 0
- Plant response rating, Nutsedge, Yellow [8, 20]: 0
- Plant response rating, Nutsedge, Yellow [8, 21]: 0
- Plant response rating, Nutsedge, Yellow [8, 22]: 0
- Barnyardgrass plant response rating [9, 18]: 0
- Barnyardgrass plant response rating [9, 15]: 0
- Barnyardgrass plant response rating [9, 16]: 10
- Plant response rating, Barnyardgrass [9, 17]: 20
- Plant response rating, Ragweed [10, 12]: 0
- Plant response rating, Ragweed [10, 13]: 50
- Plant response rating, Ragweed [10, 14]: 65
- Ragweed plant response rating [10, 23]: 50
- Plant response rating, Ragweed [10, 20]: 50
- Plant response rating, Ragweed [10, 21]: 30
- Plant response rating, Ragweed [10, 22]: 5
